Laboratory results as given in patent US11612586B2, “Indole regulation of antigen presenting cells” (THE TEXAS A&M UNIVERSITY SYSTEM, priority 2016, dated 2023).

What was measured:
Type in all cases: cell-based, mouse
naïve CD4+CD25− T cells [1] = assay: DC-T cell co-culture, monoclonal (OT-II, OVA323-339) stimulation: Foxp3+ Treg induction
Protocol: FIG. 16 graphically illustrates that indole-conditioned DCs preferentially induce Foxp3+ Tregs (monoclonal stimulation). Naïve CD4+CD25− T cells from OT-II TCR transgenic mice were isolated and labeled with cell proliferation dye. Naïve T cells were then co-cultured with OVA323-339 peptide-loaded BMDCs for 72 hours in the presence of TGF-β as indicated. BMDCs were previously treated with indole, RA, or DMF from day 3. Following 3 days of co-culture, surface and intracellular staining was performed for flow cytometric analysis. The mean percentage of Foxp3-positive […] from four independent experiments is shown. * indicates p<0.05 for one-way ANOVA followed by Dunnett's post-test.
FIGS. 20A and 20B graphically illustrate that T cell skewing mediated by indole-conditioned DCs is AhR-independent. BMDCs were differentiated from WT or AhR-KO mice and conditioned with indole, RA, or DMF from day 3. DCs were then loaded with OVA323-339 and co-cultured with naïve CD4+CD25− T cells from OT-II transgenic mice for 72 hours. For Th1 cultures, T cells were restimulated with PMA and ionomycin in the presence of golgiplug for the last 5 hours of culture. Subsequently, all cultures were stained and analyzed by flow cytometry for Foxp3 to identify Tregs or (B) IFNγ to identify Th1 cells.
To investigate whether indole-conditioned DCs preferentially induce Tregs, a co-culture system using FACS-sorted wild-type naïve CD4+CD25− T cells was employed. These naïve T cells were activated by antibodies against CD3 and CD28 in the presence of indole-conditioned BMDCs and cultured for 72 hours. Under this platform for polyclonal stimulation, a 2-fold increase in Treg induction in indole-DC cultures compared to controls was observed (FIG. 15). Additionally, the inventors pursued the same question in a more physiologically relevant model; i.e., under monoclonal T cell stimulation. […]

TNF = TNF production in splenic CD11c+ DCs ex vivo; conditions: indole overnight
Excerpt: To evaluate the possible role of AhR in mediating the anti-inflammatory effects of indole on DCs, AhR-deficient mice were acquired and analyzed splenic and bone marrow-derived DCs. Splenocytes from AhR-deficient and WT mice were first treated overnight with indole, followed by stimulation with heat-killed S. typhimurium.

naïve CD4+CD25− T cells [2] = assay: DC-T cell co-culture without cell contact (Transwell): Treg induction; conditions: exogenous TGF-β added, 3 days
Protocol: Transwell tissue culture plates were used to perform co-cultures with a physical barrier between the two cell types. Naïve CD4+CD25− T cells were FACS-sorted and placed in the bottom of a 24-well Transwell cell culture plate with 0.4 uM polycarbonate membranes that had been coated with α-CD3 (5 ug/ml) and α-CD28 (2 ug/ml). TGF-β was added at the indicated concentrations. […] The T cell to DC ratio was 2:1, as in other co-culture experiments. After 3 days, T cells were stained for Foxp3 and analyzed by flow cytometry.
Naïve CD4+CD25− T cells were FACS-sorted and placed in the bottom of a 24-well Transwell cell culture plate with 0.4 uM polycarbonate membranes (Corning) that had been coated with 5 μg/mL αCD3 (BioXcell 145-2C11) and 2 μg/mL αCD28 (BioXcell 37.51). TGF-β was added at the indicated concentrations. The insert was placed in the well and washed, Day 3-treated BMDCs were added to the top chamber such that culture media was shared, but the cell types were kept physically separate. The T cell to DC ratio was 2:1, as in other co-culture experiments.

CCR7 = CCR7 surface expression on BMDCs
Protocol: FIG. 14 graphically illustrates that indole upregulates CCR7 expression in DCs. Flow cytometric analysis were performed on BMDCs cultured from day 3 in the presence of indole (1 mM), RA (1 uM), or DMF control and either surface stained for CCR7 expression directly or treated with LPS (1 ug/ml) for 24 hours prior to CCR7 staining.
Encountering maturation-inducing stimuli induces an upregulation of the chemokine receptor CCR7 in DCs. This shift promotes DC migration from peripheral tissues to the lymph nodes to present captured antigen. CCR7 expression facilitates this migration by rendering DCs sensitive to the chemoattractants, CCL19 and CCL21, which direct DCs to T cell areas of lymphoid tissues. […] Exposure to LPS is a DC-activating signal known to upregulate CCR7 expression in order to prime DCs for lymph node entry. Consistent with the literature, exposure to LPS for 24 hours further induced CCR7 expression in our BMDC cultures overall. Here, indole-conditioned DCs once again expressed a higher level of CCR7 expression compared to controls by over 3-fold in magnitude (FIG. 14).

Stat3 = assay: IL-6-induced phospho-Stat3 in BMDMs
Protocol: BMDMs were treated with indole or DMF control for 18 hours, then stimulated with IL-6 (10 ng/ml) for the given times. Cells were stained for phospho-Stat3 and analyzed by flow cytometry.
Similarly, the ex vivo indole conditioning of splenocytes was repeated with tissues from AhR-deficient and wild-type mice and analyzed TNF production. […] Importantly, in this set of experiments splenocytes were stimulated with LPS, heat-killed S. typhimurium, and CpG. […] Specifically, BMDMs were generated from WT or AhR-KO mice and treated with indole (1 mM) or DMF control for 18 hours. BMDMs were then stimulated with IL-6 (10 ng/ml) for the given times and stained for phospho-Stat3, which was detected by flow cytometry.

SMILES: c1ccc2[nH]ccc2c1 [Indole, indole]
- Treg induction above solvent controls (naïve CD4+CD25− T cells [1]; BMDCs conditioned with indole, exogenous TGF-β absent or 2 ng/ml): Significance was not reached
- Treg induction above solvent controls (naïve CD4+CD25− T cells [1]; OT-II T cells with OVA-loaded BMDCs conditioned with indole, TGF-β at 10 and 30 ng/ml): 3.5 fold
- AhR dependence of Treg skewing (naïve CD4+CD25− T cells [1]; indole-conditioned BMDCs from wild-type or AhR−/− mice): entirely independent of AhR
- inhibition of TNF production (TNF; splenic CD11c+ DCs, LPS or heat-killed S. typhimurium): ≥ 2 fold
- inhibition of TNF production (TNF; splenic DCs from AhR−/− mice, heat-killed S. typhimurium): 2 fold
- inhibition of TNF production (TNF; splenic DCs from WT mice, heat-killed S. typhimurium): 2 fold
- Treg induction by conditioned DCs without cell contact over solvent controls (naïve CD4+CD25− T cells [2]): did not enhance Treg skew
- CCR7 expression compared to controls (CCR7; BMDCs, indole 1 mM from day 3, LPS for 24 hours): over 3 fold
- increase in CCR7 expression over RA or solvent controls (CCR7; day 7 freshly harvested BMDCs, indole 1 mM from day 3): approximately 5 fold
- reduction of Stat3 signaling (Stat3; BMDMs from WT or AhR-KO mice, 1 mM indole 18 hours, IL-6 10 ng/ml): over 60%
- reduction of number of macrophages undergoing Stat3 phosphorylation (Stat3; BMDMs, overnight indole, IL-6 stimulation): 50%
